# What was measured:
# [1] = Mammalian cell cytotoxicity, colony formation; format: cell-based; conditions: Chinese hamster, Chinese hamster cells; drug for 3 hours at 37° C., colony formation after 5 days; read-out: 50% Cytotoxic Conc. in CHO cells
# Procedure: Mammalian Cell Cytotoxicity
# The cells were grown overnight and treated with drug for 3 hours at 37° C., at which time the compound containing media was replaced with fresh media. The cells were then incubated for 5 days and examined for colony formation.
# E. coli topoisomerase IV = molecular target: T1, E. coli topoisomerase IV (Escherichia coli, UniProt P0AFI2+P20083); experiment: Topoisomerase IV k-DNA decatenation assay; format: biochemical; conditions: k-DNA decatenation, 10 minutes at 37° C.; read-out: Top IV IC50
# T1 construct: made in house; host or cells: E. coli overexpressing strains
# T1 sequence (P0AFI2 whole entry): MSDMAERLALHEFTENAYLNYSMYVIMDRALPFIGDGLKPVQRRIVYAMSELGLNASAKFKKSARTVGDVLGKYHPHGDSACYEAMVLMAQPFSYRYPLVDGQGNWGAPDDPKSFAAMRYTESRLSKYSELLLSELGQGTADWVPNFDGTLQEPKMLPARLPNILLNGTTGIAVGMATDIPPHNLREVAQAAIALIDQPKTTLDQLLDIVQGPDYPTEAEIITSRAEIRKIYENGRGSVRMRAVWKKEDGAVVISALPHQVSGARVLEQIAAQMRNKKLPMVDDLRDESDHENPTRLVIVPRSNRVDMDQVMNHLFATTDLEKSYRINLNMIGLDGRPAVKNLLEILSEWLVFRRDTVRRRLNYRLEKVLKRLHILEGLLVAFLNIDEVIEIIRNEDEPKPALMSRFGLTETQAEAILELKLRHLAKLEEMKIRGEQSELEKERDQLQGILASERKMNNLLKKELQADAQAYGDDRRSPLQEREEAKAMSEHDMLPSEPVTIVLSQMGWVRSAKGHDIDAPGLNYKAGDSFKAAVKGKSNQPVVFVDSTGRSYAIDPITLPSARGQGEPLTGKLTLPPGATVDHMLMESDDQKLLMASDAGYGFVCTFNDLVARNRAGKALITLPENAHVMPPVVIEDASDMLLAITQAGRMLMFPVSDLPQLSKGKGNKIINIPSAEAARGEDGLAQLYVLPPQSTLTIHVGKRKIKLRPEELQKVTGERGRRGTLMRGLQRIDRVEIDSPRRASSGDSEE
# T1 sequence (P20083 whole entry): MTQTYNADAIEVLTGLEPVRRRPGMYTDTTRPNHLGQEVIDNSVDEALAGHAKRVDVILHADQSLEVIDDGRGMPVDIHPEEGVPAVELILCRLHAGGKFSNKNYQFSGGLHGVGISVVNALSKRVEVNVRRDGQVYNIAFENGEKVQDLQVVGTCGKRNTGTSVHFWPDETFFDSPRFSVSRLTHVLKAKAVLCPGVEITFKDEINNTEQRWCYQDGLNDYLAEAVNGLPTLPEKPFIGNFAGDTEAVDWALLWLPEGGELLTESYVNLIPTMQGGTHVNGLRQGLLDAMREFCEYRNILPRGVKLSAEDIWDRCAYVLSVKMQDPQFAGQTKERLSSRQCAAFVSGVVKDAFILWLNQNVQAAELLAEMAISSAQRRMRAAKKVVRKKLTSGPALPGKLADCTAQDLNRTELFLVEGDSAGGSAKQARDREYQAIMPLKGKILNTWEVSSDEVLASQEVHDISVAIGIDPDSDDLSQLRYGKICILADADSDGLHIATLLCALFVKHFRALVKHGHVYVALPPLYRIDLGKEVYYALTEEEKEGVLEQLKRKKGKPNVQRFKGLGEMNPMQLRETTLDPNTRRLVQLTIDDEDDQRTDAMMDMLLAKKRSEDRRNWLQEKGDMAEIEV
# Procedure: Topoisomerase IV was purified from E. coli overexpressing strains and the compounds were assayed according to literature conditions (Journal of Biological Chemistry, 1993;268(32):24481). The k-DNA decatenation assay was used. Briefly, reactions were performed in buffer R (40 mM Tris-HCl (pH 7.5), 6 mM MgCl2, 10 mM DTT, 100 mM potassium glutamate, 40 μM ATP, 50 μg/mL bovine serum albumin, 10 mM NaCl). 0.2 μg of kinetoplast DNA (k-DNA; TopoGen, Columbus, Ohio) was incubated with 5 ng of E. coli topoisomerase IV in the presence or absence of test compounds for 10 minutes at 37° C. Subsequently, one-tenth volume of 10×gel loading buffer (0.3% bromophenol blue, 16% Ficoll, 10 mM Na2HPO4) was added, and samples were loaded onto horizontal 0.8% agarose gels prepared with TBE buffer and containing 0.05 μg/mL of ethidium bromide. Electrophoresis was at 70 V for 2 to 4 hours. Gels were then examined by exposure to UV light. The concentration of drug inhibiting 50% of the decantenating activity of Topoisomerase IV is given as an IC50 and recorded in Table 2.
# E. coli gyrase = molecular target: T2, E. coli gyrase (Escherichia coli, UniProt P0AES4+P0AES6); experiment: DNA gyrase supercoiling inhibition assay; format: biochemical; conditions: supercoiling of relaxed pBR322, 30 minutes at 37° C.; read-out: DNA Gyrase IC50
# T2 construct: purchased Lucent, Ltd., Leicester, UK
# T2 sequence (P0AES4 whole entry, one chain of several): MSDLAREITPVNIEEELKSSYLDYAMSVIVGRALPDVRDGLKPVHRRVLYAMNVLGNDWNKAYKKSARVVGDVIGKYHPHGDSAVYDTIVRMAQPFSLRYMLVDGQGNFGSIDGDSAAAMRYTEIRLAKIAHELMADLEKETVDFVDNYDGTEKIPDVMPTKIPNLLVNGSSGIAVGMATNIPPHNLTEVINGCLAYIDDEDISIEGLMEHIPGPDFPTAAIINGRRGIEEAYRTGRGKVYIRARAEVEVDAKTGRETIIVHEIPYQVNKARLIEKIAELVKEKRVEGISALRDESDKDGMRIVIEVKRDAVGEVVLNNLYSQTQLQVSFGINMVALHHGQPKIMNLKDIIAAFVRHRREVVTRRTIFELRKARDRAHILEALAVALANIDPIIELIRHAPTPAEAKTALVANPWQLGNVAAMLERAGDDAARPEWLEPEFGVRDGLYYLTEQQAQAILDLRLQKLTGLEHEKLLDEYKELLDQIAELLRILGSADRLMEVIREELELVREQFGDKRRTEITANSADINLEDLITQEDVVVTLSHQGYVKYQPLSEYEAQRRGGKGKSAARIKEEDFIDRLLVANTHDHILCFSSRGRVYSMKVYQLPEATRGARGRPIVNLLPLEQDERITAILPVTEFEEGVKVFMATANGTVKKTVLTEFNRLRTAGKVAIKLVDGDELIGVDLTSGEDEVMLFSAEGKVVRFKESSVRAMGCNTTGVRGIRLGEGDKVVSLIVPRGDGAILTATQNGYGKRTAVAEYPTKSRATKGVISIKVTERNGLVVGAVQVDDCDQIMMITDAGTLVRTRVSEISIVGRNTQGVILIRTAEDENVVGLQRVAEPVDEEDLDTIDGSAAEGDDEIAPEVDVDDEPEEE
# Procedure: The effects of test agents on the activity of DNA gyrase was determined by the supercoiling inhibition assay, following reaction conditions recommended by the enzyme supplier (Lucent, Ltd., Leicester, UK), as follows. Reactions were performed in buffer G (35 mM Tris-HCL (pH 7.5), 24 mM KCl, 4 mM MgCl2, 2 mM DTT, 1.8 mM spermidine, 1 mM ATP, 0.1 mg/mL bovine serum albumin). 0.25 μg of relaxed plasmid pBR322 (Lucent, Ltd., Leicester, UK) was reacted with 1 U E. coli gyrase (Lucent, Ltd., Leicester, UK), in the absence or presence of drugs, for 30 minutes at 37° C. Reactions were stopped by the addition of SDS and proteinase K to respective final concentrations of 1% and 0.5 mg/mL. After an additional 30 minutes at 37° C., one-tenth volume of 10×loading buffer (0.3% bromophenol blue, 16% Ficoll, 10 mM Na2HPO4) was added, and reactions were loaded onto agarose gels and electrophoresed as described above for intercalation assays. The concentration of drug inhibiting 50% of the supercoiling activity of DNA gyrase is given as an IC50 and recorded in Table 2.
# S. pyogenes C203 = experiment: Antibacterial assay, standard microtitration, MIC; format: cell-based; conditions: Streptococcus pyogenes, Gram positive, read-out: Minimum Inhibitory Concentrations, S. pyogenes C203
# Outline: (§1)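 Compounds were screened against a panel of Gram-negative and Gram-positive bacteria by conventional microtitration; the minimum inhibitory concentration was recorded as the read-out.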
# E. coli To1C = experiment: Antibacterial assay, standard microtitration, MIC; format: cell-based; conditions: Escherichia coli, TO1C, read-out: Minimum Inhibitory Concentrations, E. coli To1C
# Outline: as §1
# E. coli B90 = experiment: Antibacterial assay, standard microtitration, MIC; format: cell-based; conditions: Escherichia coli, Gram negative, read-out: Minimum Inhibitory Concentrations, E. coli B90
# Outline: as §1
# E. coli MC4100 = experiment: Antibacterial assay, standard microtitration, MIC; format: cell-based; conditions: Escherichia coli, Gram negative, read-out: Minimum Inhibitory Concentrations, E. coli MC4100
# Outline: as §1
# B. subtilis RB1 = experiment: Antibacterial assay, standard microtitration, MIC; format: cell-based; conditions: Bacillus subtilis, Gram positive, read-out: Minimum Inhibitory Concentrations, B. subtilis RB1
# Outline: as §1
# S. aureus 29213 = experiment: Antibacterial assay, standard microtitration, MIC; format: cell-based; conditions: Staphylococcus aureus, Gram positive, read-out: Minimum Inhibitory Concentrations, S. aureus 29213
# Outline: as §1
# relaxed plasmid pBR322 = experiment: DNA intercalation/binding assay; conditions: pBR322 with calf thymus topoisomerase I, 30 minutes at 37° C.; read-out: Drug Concentration causing 50% Intercalation of DNA
# Procedure: Compounds of the present invention were evaluated for their ability to intercalate/bind to DNA, using the procedure described in Nucleic Acids Research, 1987;15(15):6713. Specifically, 0.2 μg of relaxed plasmid pBR322 (Lucent, Ltd., Leicester, UK) was treated with 2 U of calf thymus topoisomerase I (Gibco/BRL, Gaithersburg, Md.) in buffer I (10 mM Tris-HCl (Ph 7.5), 50 mM KCl, 5 mM MgCl2, 1 mM Na2EDTA, 15 μg/mL bovine serum albumin) in the presence or absence of test compounds. Reaction were incubated for 30 minutes at 37° C.; volumes were typically 30 μL. Reactions were terminated by the addition of sodium dodecylsulfate (SDS) to 1% and proteinase K to 0.5 mg/mL final concentrations. After an additional 30 minutes at 37° C., one-tenth volume of 10×concentrated loading buffer (0.3% bromophenol blue, 16% Ficoll, 10 mM Na2HPO4) was added, and samples were loaded onto horizontal 0.8% agarose gels prepared in TAE buffer. Electrophoresis was at 22 V for 14 hours. Gels were then stained by soaking for 1.5 hours in deionized water containing 0.2 μg/mL of ethidium bromide, followed by destaining in deionized water for an additional 1.5 hours. Gels were examined and photographed following exposure to UV light. The concentration of the drug which induced a 50% change in the DNA by intercalation is represented by an intercalation IC50 and is recorded in Table 4.
compound,measurement,setting,value
"Nc1cc2c3c(cccc3c1Cl)C(=O)N(O)C2=O [Example 28, 5-Amino-6-chloro-2-hydroxy-benzo[de]isoquinoline-1,3-dione]",IC50 at 3 h,[1],> 250 µM
same,IC50,E. coli topoisomerase IV,7 µM
same,IC50,E. coli gyrase,20 µM
same,MIC,S. pyogenes C203,> 64 µg/mL
same,MIC,E. coli To1C,1 µg/mL
same,MIC,E. coli B90,1 µg/mL
same,MIC,E. coli MC4100,16 µg/mL
same,MIC,B. subtilis RB1,4 µg/mL
same,MIC,S. aureus 29213,4 µg/mL
same,IC50,relaxed plasmid pBR322,> 100 µM

# Reference: patent publication US6362181B1, “Isoquinolones” (Warner-Lambert Company, priority 1996, dated 2002)
